Results: patent US5340818A, “Methods and compositions for inhibiting tumor cell growth” (priority 1993, dated 1994)
Where “and” joins values, the source holds several entries; their conditions need not be identical. Equal entries are not always repeated. Entries after “also recorded” stand apart in the source; their conditions may differ. Where two headings read alike, the source gives them in different places.

Assays:
[1] = system: Ehrlich ascites; conditions: ip, 30 × 1 × 10 mg/kg/day; cited from earlier work
[2] = system: Lewis lung carcinoma; assay: Lewis lung carcinoma survival time evaluation in C57BL/6 mice; type: in vivo, mouse; parameters: Survival Time, individual mice / AST (average survival time): unit not given here; conditions: for AST (average survival time) / Day #7 AWC (average weight change) / N/T (29 day survivors/total mice) / Survival Time, individual mice / % ILS (increase in lifespan): day 1, QDX4 ip; for % ILS (increase in lifespan): 25% or greater indicates activity
Description: Tumor-Lewis Lung C. 3 × 10^5 cells (ip) in C57BL/6, FEM, 19-21
(§1) Diluent-CMC + 1 drop Tween 80
(§2) Schedule: Day 1, QDX4 (ip)

[3] = system: HL-60 cells; assay: HL-60 cell growth inhibition, 72 h; type: cell-based, human; conditions: HL-60, 72 h; for IC50: read-out: Cell Growth Inhibition, IC50
How it was run: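 HL-60 cells seeded at 1.5×10^5/ml in RPMI 1640, exposed 72 h at 37° C, 5% CO2 to compound at 0.0025-0.05 mg/ml in 0.1% DMSO. Viable cells counted by trypan blue exclusion; IC50 from median-effect analysis over three to five dose levels versus DMSO control.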

[4] = system: B-16 Melanoma; assay: B-16 melanoma in mice; type: in vivo, mouse; conditions: day 1 QDX4
Description: Chemotherapeutic Effects of Acronycine and TSA-35 against Solid

[5] = system: protein synthesis in HL-60 cells; assay: Inhibition of [2,3,4,5-3H]L-Leu incorporation into protein of HL-60 cells; type: cell-based, human; conditions: Homo sapiens
How it was run: (§3)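 HL-60 cells (2.2×10^6/ml) preincubated 15 min with compound (0.03 mg/ml, 0.3% DMSO), then 30 min with [5-3H]Cyd (5 μCi, 0.23 nmol/ml) for RNA or [2,3,4,5-3H]L-Leu (0.5 μCi, 0.004 nmol/ml) for protein. Inhibition relative to DMSO-only incorporation.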

[6] = system: RNA synthesis in HL-60 cells; assay: Inhibition of [5-3H]Cyd incorporation into RNA of HL-60 cells; type: cell-based, human; conditions: Homo sapiens, HL-60, 0.5 h
How it was run: as §3

[7] = system: DNA synthesis in HL-60 cells; assay: Inhibition of [3H-methyl]dThd incorporation into DNA of HL-60 cells; type: cell-based, human; conditions: Homo sapiens, HL-60, at 0.03 mg/mL; read-out: % Inhibition of Precursor Incorporation, DNA
How it was run: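 HL-60 cells, 2.2×10^6 /ml, preincubated 15 min with compound in 0.3% DMSO, then 30 min with [3H-methyl]dThd (1 μCi, 0.15 nmole/ml). DNA incorporation compared with DMSO-only control.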

[8] = system: Carcinoma EO771; assay: Carcinoma EO771 (E07713 mammary adenocarcinoma) survival time evaluation in C57BL/6 mice; type: in vivo
Description: Tumor-Carcinoma EO771 3 × 10^5 cells (ip) in C57BL/6, FEM,
as §1, §2

[9] = system: L1210/0 cells; assay: Cross-resistance studies: growth inhibition of doxorubicin-sensitive L1210/0 cells; type: cell-based; conditions: L1210/0 (doxorubicin sensitive)
[10] = Table 8, 25 mg/kg ip, day 1 QDX4
[11] = Table 8, 50 mg/kg ip, day 1 QDX4
[12] = Table 8, 100 mg/kg ip, day 1 QDX4
[13] = Table 8, 150 mg/kg ip, day 1 QDX4

COc1cc2c(c3c1c(=O)c1ccccc1n3C)C=CC(C)(C)O2 [Compound 1, Acronycine]
Percent activity [1]: 0(1) Percent
AST (average survival time) ([2]; 25 mg/kg): 14.6
Day #7 AWC (average weight change) ([2]; 25 mg/kg): -0.6 g
N/T (29 day survivors/total mice) ([2]; 25 mg/kg): 0/5
Survival Time, individual mice ([2]; 25 mg/kg): 14 and 17
% ILS (increase in lifespan) ([2]; 25 mg/kg): 40%
AST (average survival time) ([2]; 50 mg/kg): 14.6
Day #7 AWC (average weight change) ([2]; 50 mg/kg): -0.8 g
N/T (29 day survivors/total mice) ([2]; 50 mg/kg): 0/5
Survival Time, individual mice ([2]; 50 mg/kg): 14 and 15
% ILS (increase in lifespan) ([2]; 50 mg/kg): 40%
% ILS [2, 10]: 40%
Day 7 BWC (body weight change) [2, 10]: -0.6 g
N/T (40 day tumorfree mice/total) [2, 10]: 0/5
% ILS [2, 11]: 34%
Day 7 BWC (body weight change) [2, 11]: -0.5 g
N/T (40 day tumorfree mice/total) [2, 11]: 0/15
N/T (40 day tumorfree mice/total) [2, 12]: 0/5
death [2, 12]: 5/5
cell growth inhibition, in words [3]: significantly active
% ILS ([4]; 50 mg/kg ip): 24%
Day 7 BWC (body weight change) ([4]; 50 mg/kg ip): -0.6 g
N/T (40 day tumorfree mice/total) ([4]; 50 mg/kg ip): 0/5
inhibition at 30 µg/mL ([5]; HL-60, read-out: % Inhibition of Precursor Incorporation, Protein, at 0.03 mg/mL): 25.4%
inhibition at 30 µg/mL ([6]; read-out: % Inhibition of Precursor Incorporation, RNA, at 0.03 mg/mL): 21.3%
inhibition at 30 µg/mL [7]: ~90%
AST (average survival time) ([8]; 50 mg/kg, day 1, QDX4 ip): 13.4
Day #7 AWC (average weight change) ([8]; 50 mg/kg, day 1, QDX4 ip): +0.4 g
N/T (22 day survivors/total mice) ([8]; 50 mg/kg, day 1, QDX4 ip): 0/5
Survival Time, individual mice ([8]; 50 mg/kg, day 1, QDX4 ip): 11 and 14 and 17
% ILS (increase in lifespan) ([8]; 50 mg/kg, day 1, QDX4 ip, 25% or greater indicates activity): 26%
toxicity induced deaths ([8]; 100 mg/kg daily for 4 days ip): 1 out of 3
AST (average survival time) ([8]; 100 mg/kg, day 1, QDX4 ip): 11.0
Day #7 AWC (average weight change) ([8]; 100 mg/kg, day 1, QDX4 ip): +0.5 g
N/T (22 day survivors/total mice) ([8]; 100 mg/kg, day 1, QDX4 ip): 0/3
% ILS (increase in lifespan) ([8]; 100 mg/kg, day 1, QDX4 ip, 25% or greater indicates activity): 4%
Survival Time, individual mice ([8]; 100 mg/kg, day 1, QDX4 ip, t = died of toxicity): 4t and 10 and 12
% ILS [8, 11]: 26%
Day 7 BWC (body weight change) [8, 11]: +0.4 g
N/T (40 day tumorfree mice/total) [8, 11]: 0/5
% ILS [8, 12]: 4%
N/T (40 day tumorfree mice/total) [8, 12]: 0/3
death [8, 12]: 1/3

COc1c(OC)c(OC)c2c(c1O)c(=O)c1ccc(O)c(OC)c1n2C [Compound 31, Glyfoline]
AST (average survival time) ([2]; 25 mg/kg): 14.8
N/T (29 day survivors/total mice) ([2]; 25 mg/kg): 0/5
% ILS (increase in lifespan) ([2]; 25 mg/kg): 42%
Survival Time, individual mice ([2]; 25 mg/kg, listed as TSA-35): 14 and 18
AST (average survival time) ([2]; 50 mg/kg): > 20
N/T (29 day survivors/total mice) ([2]; 50 mg/kg): 2 out of 5
% ILS (increase in lifespan) ([2]; 50 mg/kg): > 92%
N/T (29 day survivors/total mice) ([2]; 50 mg/kg, listed as TSA-35): 2/5
Survival Time, individual mice ([2]; 50 mg/kg, listed as TSA-35): 14 and > 29
% ILS [2, 10]: 42%
N/T (40 day tumorfree mice/total) [2, 10]: 0/5
% ILS [2, 11]: > 59%
N/T (40 day tumorfree mice/total) [2, 11]: 2/15
% ILS [2, 12]: > 46%
N/T (40 day tumorfree mice/total) [2, 12]: 1/10
% ILS [2, 13]: > 79%
N/T (40 day tumorfree mice/total) [2, 13]: 2/8
toxicity to mice, in words ([2]; mouse, in vivo): less toxicity to mice than that of compound 1
Day 7 BWC (body weight change) ([2]; mouse, in vivo, ip, 25 mg/kg): +0.2 g
Day 7 BWC (body weight change) ([2]; mouse, in vivo, ip, 50 mg/kg): +0.3 g
Day 7 BWC (body weight change) ([2]; mouse, in vivo, ip, 100 mg/kg): +0.5 g
Day 7 BWC (body weight change) ([2]; mouse, in vivo, ip, 150 mg/kg): -0.3 g
Cell Growth Inhibition, IC50 [3]: 0.4 µg/mL
cell growth inhibition, in words [3]: most potent compound in this series; also recorded: significant activity against leukemic cells in vitro
IC50 [3]: 1110 nM
IC50 ([3]; Homo sapiens): 0.4 µg/mL and 1.1 µM
% ILS ([4]; 25 mg/kg ip): 31%
N/T (40 day tumorfree mice/total) ([4]; 25 mg/kg ip): 0/5
% ILS ([4]; 50 mg/kg ip): 40%
N/T (40 day tumorfree mice/total) ([4]; 50 mg/kg ip): 0/5
% ILS ([4]; 150 mg/kg ip): > 56%
N/T (40 day tumorfree mice/total) ([4]; 150 mg/kg ip): 1/5
inhibition at 30 µg/mL ([5]; HL-60, at 0.03 mg/mL, read-out: % Inhibition of Precursor Incorporation, Protein): 90.7%
IC50 [9]: 2090 nM
inhibition at 30 µg/mL ([6]; at 0.03 mg/mL, read-out: % Inhibition of Precursor Incorporation, RNA): 65.7%
inhibition at 30 µg/mL [7]: 93.5%
AST (average survival time) ([8]; 50 mg/kg, day 1, QDX4 ip): 12.4
N/T (22 day survivors/total mice) ([8]; 50 mg/kg, day 1, QDX4 ip): 0/5
Survival Time, individual mice ([8]; 50 mg/kg, day 1, QDX4 ip, listed as TSA-35): 10 and 11 and 12 and 14 and 15
AST (average survival time) ([8]; 100 mg/kg, day 1, QDX4 ip): > 15
N/T (22 day survivors/total mice) ([8]; 100 mg/kg, day 1, QDX4 ip): 1/3
Survival Time, individual mice ([8]; 100 mg/kg, day 1, QDX4 ip, t = died of toxicity, listed as TSA-35): 11 and > 22
% ILS (increase in lifespan) ([8]; ip, 50 mg/kg, 24 h): 17%
% ILS (increase in lifespan) ([8]; ip, 100 mg/kg, 24 h): > 39%
toxicity induced deaths ([8]; mouse, in vivo): no deaths
Day 7 BWC (body weight change) ([8]; mouse, in vivo, ip, 25 mg/kg): +0.6 g
Day 7 BWC (body weight change) ([8]; mouse, in vivo, ip, 50 mg/kg): +0.3 g
